Laboratory results from EP0334369B1, “Antiarteriosclerotic agent” (DAIICHI PHARMACEUTICAL CO., LTD., priority 1988, dated 1989).
Where “and” joins values, the source holds several entries; their conditions need not be identical. Equal entries are not always repeated. Structures can show the parent of a compound that is named as a salt.

Test system: Vascular smooth muscle cells (VSMC)
Assay: Determination of DT (time required for doubling the number of cells) of vascular smooth muscle culture cells
Type: cell-based
Conditions: Treated Group; VSMC from aorta of SHR, 48-hour cultivation with Compound A; concentration not given; P < 0.02 vs. control group by Student's t-test; hydrate
Protocol: Effects on Proliferation of Vascular Smooth Muscle Culture Cells Vascular smooth muscle cells (hereinafter referred to as VSMC) were separated from the aorta of seven 7-week-old male SHR and cultured according to the explant method [cf. Ross, R.J. Cell Biol., Vol. 50, 172 (1971)]. Culture cells of passage Nos. 4 to 10 were used for testing. The proliferation ability of VSMC was evaluated in terms of time required for doubling the number of the cells (hereinafter referred to as DT) and ³H-TU according to the following test methods. 1) Determination of DT: VSMC (about 5 x 10⁴ cells) were cultured on a plate for 24 hours. Compound A was added to the culture, and cultivation was continued for an additional period of 48 hours. The number of cells before the addition of Compound A and after the 48-hour cultivation were counted by means of a light microscope, and DT was obtained therefrom by the equation: [formula] wherein t₁ is the time at which the number of cells before addition of Compound A is counted; t₂ is the time at which the number of cells after addition of Compound A is counted; N₁ is the number of cells at t₁; and N₂ is the number of cells at t₂.

In the case of `O=C(O)c1ccc2c(c1)CCC(Cn1ccnc1)C2` (stereo not shown) [Compound A, 6-(1-Imidazolylmethyl)-5,6,7,8-tetrahydro-2-naphthalenecarboxylic acid hydrochloride 1/2 hydrate], the DT is reported as 26.16 h and 27.81 h and 26.59 h and 28.94 h and 21.66 h and 24.41 h.
